Test [1] has as its system flattened spinal cord organoids (fSCOs). The experiment in a line: MEA mean firing rate of flattened spinal cord organoids after capsaicin and short-term DAMGO. It counts as cell-based, human. The protocol: (§1) After 10 days of growing, the flattened organoids as developed in accordance with the present disclosure were put into contact with bottom electrodes for measuring electrical and neuron activity. Recording of the spinal cord organoids' electrical activity was performed by using the Axion Mestro Edge (Axion inc). The spinal cord organoids were kept at 37° C. maintained by an internal heater and infused with 5% CO2. To determine the mean firing rate of a spinal cord organoid, the 3-minute MEA recording was repeated 5 times. The final mean firing rate of the organoid was calculated as the average mean firing rate of the 3 most consistent recordings among the 5 recordings. To reduce the variation brought by adding substance, the medium was also refreshed before measuring mean firing rate baseline. The substance was first diluted into ScM IV at 2× of the desired concentration, then half of the medium was replaced with the 2× concentrated solution to reach the desired concentration.
Capsaicin, a transient receptor potential cation channel subfamily V member 1 (TRPV1) agonist, was applied to fSCOs to model pain responses. […] Next, capsaicin and different concentrations of DAMGO together to test the pain relief effects of different opioids doses. […] As the opioids doses increase, the fSCOs' firing rates decreased, and the organoids reached minimal firing rates when the concentration was higher than 1 μM.

The next test concerns the target T1, μ-opioid receptor (Homo sapiens, UniProt P35372).
T1 construct: confirm that the presence of neuron populations that express μ-opioid receptors; endogenous in cells; host or cells: flattened spinal cord organoids (fSCOs) derived from WA09 cells
The experiment in a line: Immunofluorescence staining of μ-opioid receptor expression after prolonged administration. Conditions: prolonged DAMGO treatment group (500 nM, 8 days). In kind it is cell-based.

Test [2] concerns flattened spinal cord organoids (fSCOs). The experiment in a line: Chronic opioid induced hyperalgesia model: 8-day DAMGO administration, MEA mean firing rate response to capsaicin. It counts as cell-based, human. As for the experimental part:
as §1
The fSCOs of the present disclosure were exposed to prolonged opioid administration to test the tolerance of the organoids to opioid induced hyperalgesia. The fSCOs were treated with DAMGO (500 nM) for 8 days and their responses to pain modulators were tested every other day. […] Organoids treated together with DAMGO and Naloxone, a μ-opioid receptor antagonist, were also tested to determine whether the Naloxone could reduce the opioid induced hyperalgesia.

T1 sequence (P35372 whole entry): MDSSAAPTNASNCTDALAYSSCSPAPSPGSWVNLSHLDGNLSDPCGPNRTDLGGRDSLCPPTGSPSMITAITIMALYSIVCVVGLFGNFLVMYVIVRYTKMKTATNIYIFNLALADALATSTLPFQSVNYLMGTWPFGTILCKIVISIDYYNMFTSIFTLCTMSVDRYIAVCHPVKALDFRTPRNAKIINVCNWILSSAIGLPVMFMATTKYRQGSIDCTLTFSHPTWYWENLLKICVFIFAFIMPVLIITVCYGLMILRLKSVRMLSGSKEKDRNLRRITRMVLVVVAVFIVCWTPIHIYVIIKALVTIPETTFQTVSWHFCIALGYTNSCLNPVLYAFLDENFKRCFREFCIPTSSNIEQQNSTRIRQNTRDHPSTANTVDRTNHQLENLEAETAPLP
Procedure for μ-opioid receptor: To first validate that the flattened organoids could be utilized to model pain relief, first immunofluorescence staining was used to confirm that the presence of neuron populations that express μ-opioid receptors. Sectioned samples were placed onto charged glass slides and washed three times with 1×PBS. The samples were then treated with 3N hydrochloric acid (HCl) for 15 minutes for antigen retrieval. Following HCl treatment, the samples were washed again twice with 1×PBS and subjected to blocking (0.3% Triton-X100, 5% normal goat serum in 1×PBS) for 1 hour, followed by primary antibody incubation in a humidified chamber at 4° C. overnight. The samples were then washed 3 times with 1×PBS followed by secondary antibody incubation at room temperature for 1 hour before being washed and coverslipped with gold anti-fade mounting medium containing DAPI (Invitrogen).

Take `COc1cc(CNC(=O)CCCC/C=C/C(C)C)ccc1O` [Capsaicin]: in test [1] (Capsaicin), the “% change From Baseline in Mean Firing Rate (Hz)” value is −0.1%. The “increase of mean firing rate of organoids after stimulation by capsaicin” value in test [1] (capsaicin alone, fSCOs, MEA) was 35.4%.
For the compound `C[C@@H](NC(=O)[C@@H](N)Cc1ccc(O)cc1)C(=O)NCC(=O)N(C)[C@@H](Cc1ccccc1)C(=O)NCCO` [DAMGO], the “% change From Baseline in Mean Firing Rate (Hz)” value in test [1] (Capsaicin + 100 nM DAMGO) is reported as “+0.3%”; in test [1] (Capsaicin + 500 nM DAMGO), −0.2%; in test [1] (Capsaicin + 1 uM DAMGO), −0.42%; in test [1] (Capsaicin + 10 uM DAMGO), −0.4%. The “DAMGO concentration at which organoids reached minimal firing rates” value in test [1] (capsaicin together with DAMGO) was “higher than 1 μM”. The “firing rate of spinal cord organoids versus baseline” value in test [1] (capsaicin together with minimal dose of DAMGO (100 nM)) is on record as “dropped below baseline”. Moreover, on μ-opioid receptor, the μ-opioid receptor expression entry is “downregulated”. Further, in test [2] (after 8-day administration, Ctrl and DAMGO+Naloxone group), the “firing rate versus baseline after capsaicin plus low dose of DAMGO (100 nM)” value was “reduce the firing rate below baseline”. Moreover, the “DAMGO needed to eliminate pain activity and return to activity baseline” value in test [2] (after 8-day administration, organoids in the DAMGO group (500 nM)) is recorded as “more than 1 μM”. The “mean firing rate increase after capsaicin treatment” value is on record as 73% in test [2] (day 6 of DAMGO (500 nM) treatment, control 48%) and 93% in test [2] (day 8 of DAMGO (500 nM) treatment, control 39%). Moreover, in test [2] (first 4 days of DAMGO (500 nM) treatment), the “mean firing rate increase after capsaicin treatment versus control group” value is given as “no significant difference”.

The values above are taken from patent publication US20250290032A1, “DEVICE AND METHODS FOR ENGINEERING AND MEASURING FLATTENED 3D CELL CULTURES” (The Trustees of Indiana University, priority 2022, published 2025).
